Measured values published in US20040161786A1, “Gene panel participative in hepatic stellate cell activation” (priority 2001, published 2004).

Tested on: hepatic fibrosis
Test: Dimethylnitrosamine (DMN)-induced hepatic fibrosis, hydroxyproline (Hyp) in the liver
Assay type: in vivo
Conditions: SD male rat, DMN 10 mg/kg i.p. three times a week for four weeks, diet containing 0.5% L-cysteine vs 0.5% casein, 28th day
Procedure: Hepatic fibrosis was induced by intraperitoneally administering 10 mg/kg of dimethylnitrosamine (DMN) to a 6-week SD male rat three times a week for four weeks. Then, an experimental diet containing 0.5% of L-cysteine (Cys) as a subject and that containing 0.5% of casein as a control were fed from the initiation date of the DMN administration. On the 28th day from the initiation of the […] administration, the liver was sampled from the subject and the amount of hydroxyproline (Hyp) in the liver was measured as an index of hepatic fibrosis using an amino acid analyzer.

N[C@@H](CS)C(=O)O [cysteine, L-cysteine]
increase in Hyp in the liver (index of hepatic fibrosis): significantly suppressed
